Results from PubChem BioAssay (NCI).
Several values for one entry are separate records, joined by “and”; a condition that tells them apart may be missing. Equal entries are not always repeated.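 Dose response: 5 concentrations. Exposure: 48 h. Format: 96-well plates. Endpoint: linear interpolation; highest concentration if not reached. GI50 marks 50% less growth. TGI denotes the concentration required for complete inhibition of growth.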

How the values were obtained:
Experiment in all cases: NCI anticancer screen, dose series, 48 h
SNB-75 CNS = test system: SNB-75 CNS
RPMI-8226 leukemia = test system: RPMI-8226 leukemia
SN12C renal = test system: SN12C renal
DU-145 prostate = test system: DU-145 prostate
SF-295 CNS = test system: SF-295 CNS
SF-539 CNS = test system: SF-539 CNS
HOP-62 NSCLC = test system: HOP-62 NSCLC
HT29 colon = test system: HT29 colon
MCF7 breast = test system: MCF7 breast
OVCAR-4 ovarian = test system: OVCAR-4 ovarian

| SMILES | GI50 (SNB-75 CNS) | TGI (SNB-75 CNS) | GI50 (RPMI-8226 leukemia) | TGI (RPMI-8226 leukemia) | GI50 (SN12C renal) | TGI (SN12C renal) | GI50 (DU-145 prostate) | TGI (DU-145 prostate) | GI50 (SF-295 CNS) | TGI (SF-295 CNS) | GI50 (SF-539 CNS) | TGI (SF-539 CNS) | GI50 (HOP-62 NSCLC) | TGI (HOP-62 NSCLC) | GI50 (HT29 colon) | TGI (HT29 colon) | GI50 (MCF7 breast) | TGI (MCF7 breast) | GI50 (OVCAR-4 ovarian) | TGI (OVCAR-4 ovarian) |
| --- | --- | --- | --- | --- | --- | --- | --- | --- | --- | --- | --- | --- | --- | --- | --- | --- | --- | --- | --- | --- |
| CCN(CC)CCOc1ccc(/C(=C(\Cl)c2ccccc2)c2ccccc2)cc1 | 2.19 µM and 1.39 µM | 8.5 µM and 4.95 µM | 2.17 µM | 6.98 µM | 5.28 µM and 4.43 µM | 11.9 µM and 16.5 µM | 6.79 µM and 5.62 µM | 13.3 µM and 19.2 µM | 1.06 µM and 1.87 µM | 2.54 µM and 4.02 µM | 1.77 µM and 1.87 µM | 5.49 µM and 4.29 µM | 1.38 µM and 1.94 µM | 4.76 µM and 4.16 µM | 0.944 µM and 0.353 µM | 2.21 µM and 1.38 µM | 0.307 µM and 0.577 µM | 7.55 µM and 2.99 µM | 5.31 µM and 3.14 µM | 11.3 µM and 11.6 µM |
| C[C@]12CC[C@H]3[C@@H](CC=C4C[C@@H](O)CC[C@@]43C)[C@@H]1CC[C@@H]2N(CCO)CCO | – | > 100 µM | – | > 100 µM | – | > 100 µM | – | > 100 µM | – | > 100 µM | – | > 100 µM | – | > 100 µM | – | > 100 µM | – | > 100 µM | – | > 100 µM |
| N#Cc1ccc(NC(=O)Nc2ccc(Oc3ccc(NC(=O)Nc4ccc(C#N)cc4)cc3)cc2)cc1 | 4.14 µM | 24.4 µM | 0.994 µM | 39.6 µM | 25.3 µM | > 100 µM | 31.2 µM | > 100 µM | 0.379 µM | 13.6 µM | 17.6 µM | 59.4 µM | 3.06 µM | 20.6 µM | 90 µM | > 100 µM | 3.71 µM | > 100 µM | 5.65 µM | > 100 µM |
| FC(F)(F)c1cccc(Nc2nccc(-c3cnn4nc(-c5ccccc5)ccc34)n2)c1 | 3.91 µM | 9.6 µM | 12.9 µM | > 25 µM | > 13.5 µM | > 25 µM | 7.1 µM | > 17.4 µM | > 16.6 µM | > 25 µM | 6.59 µM | > 18.7 µM | 8.1 µM | > 20.7 µM | 6.88 µM | > 18.4 µM | 6.82 µM | > 25 µM | 5.18 µM | 10.3 µM |
| COc1cc([N+](=O)[O-])cc2c3c(n(C)c12)[C@@]1(C)CCC2c4ccc(OCc5ccccc5)cc4CCC2C1C3 (stereo partly drawn) | 23.9 µM | 63.9 µM | 81.8 µM | > 100 µM | > 100 µM | > 100 µM | > 100 µM | > 100 µM | 35 µM | > 100 µM | 66.7 µM | > 100 µM | 43.7 µM | > 100 µM | 17.7 µM | 42.8 µM | > 100 µM | > 100 µM | 61.6 µM | > 100 µM |
| CC/C(=C(/c1ccc(O)cc1)c1ccc(OCCNC)cc1)c1ccccc1 | 1.43 µM | 5.24 µM | 2.05 µM | 4.64 µM | 2.19 µM | 5.78 µM | 2.63 µM | 6.81 µM | 1.95 µM | 3.95 µM | 1.7 µM | 3.22 µM | 2.03 µM | 4.44 µM | 2.02 µM | 3.83 µM | 0.0324 µM | 2.95 µM | 3.32 µM | 15.4 µM |
| O=C(/C(Br)=C/c1ccccc1)c1ccccc1 | 10.6 µM | 24.2 µM | 2.41 µM | 7.07 µM | 2.34 µM | 5.85 µM | 1.77 µM | 3.95 µM | 11.8 µM | 25.9 µM | 2.12 µM | 4.72 µM | 2.29 µM | 6.1 µM | – | – | 4.79 µM | 52.9 µM | 3.79 µM | 16.9 µM |
| COc1cc(C2=NOC(c3cc(OC)c(OC)c(OC)c3)C2)ccc1OCCCCOc1cc2c(cc1OC)C(=O)N1CCC[C@H]1C=N2 (stereo partly drawn) | 0.35 µM | 1.6 µM | 0.271 µM | 0.682 µM | 0.358 µM | 3.51 µM | 0.432 µM | 3.28 µM | 0.327 µM | 1.28 µM | 0.277 µM | 0.894 µM | 0.29 µM | 0.709 µM | 0.358 µM | > 33.2 µM | 0.255 µM | 24.4 µM | 0.439 µM | 8.64 µM |
| CC(C)(C)OC(=O)N1CCc2c(sc3ncnc(N/N=C/c4cccc5ccccc45)c23)C1 | 1.67 µM | 8.2 µM | 2.28 µM | 8.49 µM | 5.04 µM | 32.9 µM | 5.51 µM | > 100 µM | 3.72 µM | 66.8 µM | 2.72 µM | 8.59 µM | 3.79 µM | > 100 µM | 4.07 µM | > 100 µM | 3.14 µM | > 100 µM | 3.79 µM | 80.6 µM |
| CC(=O)OCCN1c2ccccc2Sc2cnccc21 | – | > 10 µM | – | > 10 µM | – | > 10 µM | – | > 10 µM | – | > 10 µM | – | > 10 µM | – | > 10 µM | – | > 10 µM | – | > 10 µM | – | > 10 µM |
| CCC(C)c1c(Cl)nc(Cl)nc1Cl (stereo not drawn) | – | 26.8 µM | – | > 100 µM | – | 85.4 µM | – | 30.4 µM | – | 42.2 µM | – | 58.8 µM | – | 16 µM | – | 24.1 µM | – | 22 µM | – | 46.2 µM |
| COc1cc2c(c(O)c1Br)C(=O)c1c(O)cc(C[C@H](C)O)cc1[C@H]2[C@H]1c2cc(C[C@H](C)O)cc(O)c2C(=O)c2c1cc(OC)c(Br)c2O | 5.09 µM and 16 µM | 56.5 µM and 67 µM | 2.19 µM and 3 µM | 67.5 µM and 11.4 µM | 2.25 µM and 3.64 µM | 67.5 µM and > 100 µM | 4.8 µM and 23.1 µM | 67.5 µM and > 100 µM | 8 µM and 10.2 µM | 21.5 µM and 22.4 µM | 2.66 µM and 3.67 µM | 14.8 µM and 13.6 µM | 6.76 µM and 19.1 µM | 63.1 µM and 96 µM | 2.39 µM and 4.83 µM | 67.5 µM and > 100 µM | 2.44 µM and 3.58 µM | 67.5 µM and > 100 µM | 11.1 µM and 25 µM | 67.5 µM and 98.1 µM |
| CC[C@@H]1CN(C)[C@H]2Cc3c([nH]c4ccccc34)C(=O)C[C@H]1C2C(=O)OC (stereo partly drawn) | – | > 100 µM | – | > 100 µM | – | > 100 µM | – | > 100 µM | – | > 100 µM | – | > 100 µM | – | > 100 µM | – | > 100 µM | – | > 100 µM | – | > 31.6 µM |
| C=C1C(=O)O[C@H]2[C@H]1CC/C(COC(=O)c1ccc3ccccc3c1)=C\CC[C@@]1(C)O[C@@H]21 | 1.44 µM | 3.05 µM | 0.281 µM | 0.869 µM | 1.16 µM | 2.87 µM | 0.945 µM | 2.23 µM | 1.54 µM | 3.06 µM | 0.838 µM | 2.23 µM | 1.56 µM | 2.97 µM | 0.438 µM | 1.65 µM | 0.457 µM | 2.52 µM | 1.52 µM | 3.32 µM |
